The results in this text go back to ChEMBL document CHEMBL1201862, “PubChem BioAssay data set” (2004).

Experiment [1] is described as follows: blockers of HIV-1 ZM109 envelope-driven cell-cell fusion – HeLa effector, CEM target cells, luciferase, cherry-pick, dose response (AID 652058).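 Further: luciferase signal from HIV-1 Env mediated cell-cell fusion of effector and target cells.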 It is filed as functional, cell-based.
Experiment [2] is described as follows: blockers of HIV-1 envelope-mediated cell-cell fusion – cherry-pick, dose response (AID 652057). It is filed as functional, cell-based.
Experiment [3] in a line: HIV-1 AD8 envelope cell-cell fusion blockers – cherry-pick, dose response (AID 652062).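 Further: luciferase signal from cell-cell fusion driven by HIV-1 clade B AD8 Env; potency is for inhibitors of fusion seen as a drop in luminescence.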 Format: functional, cell-based.
A short description of experiment [4]: off-target signal loss in HeLa-CEM21 co-culture – HeLa F-luc CTL cells, cherry-picked, counter-screen for HIV-1 Env fusion inhibitor project, dose response (AID 652040).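 Further: potency for signal decrease marking cytotoxic or nonspecific inhibition.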 It is filed as functional, cell-based.
In experiment [5] the target is T1, High affinity choline transporter 1 (Homo sapiens, UniProt Q9GZV3).
T1 sequence (Q9GZV3 whole entry): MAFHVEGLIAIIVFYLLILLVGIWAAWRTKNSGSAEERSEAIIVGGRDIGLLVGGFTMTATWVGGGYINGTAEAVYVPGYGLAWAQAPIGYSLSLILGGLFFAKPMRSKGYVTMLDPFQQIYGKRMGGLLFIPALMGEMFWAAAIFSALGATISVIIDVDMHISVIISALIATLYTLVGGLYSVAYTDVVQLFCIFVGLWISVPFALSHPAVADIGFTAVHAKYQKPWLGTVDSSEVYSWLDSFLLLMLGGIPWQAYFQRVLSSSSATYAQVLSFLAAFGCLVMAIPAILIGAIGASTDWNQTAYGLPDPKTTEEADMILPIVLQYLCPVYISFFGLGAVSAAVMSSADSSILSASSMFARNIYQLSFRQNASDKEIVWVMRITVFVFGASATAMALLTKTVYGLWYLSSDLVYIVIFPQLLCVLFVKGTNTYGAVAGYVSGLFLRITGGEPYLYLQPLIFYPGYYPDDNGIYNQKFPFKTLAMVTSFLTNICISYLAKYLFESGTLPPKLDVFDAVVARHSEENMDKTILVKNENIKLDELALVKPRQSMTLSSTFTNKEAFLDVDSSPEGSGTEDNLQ
The experiment can be described thus: inhibition of SLC5A7-mediated choline transport – cell-based, HEK-293 hCHT, [3H]-choline uptake, dose response (AID 652177). Format: functional.

Experiment [6] in a line: rescue of ΔF508 CFTR function, airway epithelium – human bronchial epithelial cells, plate reader, cherry-pick, two tests, dose response (AID 743267). Format: functional, cell-based.
The target of another experiment is Protein Wnt-3a (Mus musculus, UniProt P27467). The experiment can be described thus: SAR analysis of small molecule antagonists of Gli-SUFU in a Wnt3a luminescent reporter assay. It is filed as functional. (In general: In a reporter assay the amount or activity of a reporter protein is the signal.)
Chain of Protein Wnt-3a (P27467 whole entry): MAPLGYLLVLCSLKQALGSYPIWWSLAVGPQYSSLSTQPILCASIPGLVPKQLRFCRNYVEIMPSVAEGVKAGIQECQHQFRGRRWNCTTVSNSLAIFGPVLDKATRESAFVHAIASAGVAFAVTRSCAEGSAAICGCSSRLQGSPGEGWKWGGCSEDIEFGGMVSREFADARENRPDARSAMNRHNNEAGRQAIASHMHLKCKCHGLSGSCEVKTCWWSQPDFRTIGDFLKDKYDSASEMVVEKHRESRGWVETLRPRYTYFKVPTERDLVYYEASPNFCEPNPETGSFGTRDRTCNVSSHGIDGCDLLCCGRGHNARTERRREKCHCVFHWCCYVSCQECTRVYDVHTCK
The nature of experiment [7]: reduced cellular PGC1a acetyl-lysine signal – cell-based, cherry-picked samples, dose response (AID 720514).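 Further: potency may reflect raised or lowered acetylation signal.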 Format: functional.
Another experiment has as its target Paired box protein Pax-8 (Homo sapiens, UniProt Q06710). Nature of the experiment: PAX8 transcriptional activity inhibition in RMG-I – RMG-I cells, luciferase, cherry-pick, dose response (AID 687027).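 Further: luciferase reporter driven by Pax8 target thyroperoxidase promoter measured by SteadyGlo luminescence.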 Format: functional, cell-based.
Experiment [8] concerns the target T2, Hepatocyte nuclear factor 4-alpha (Homo sapiens, UniProt P41235).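 Further: biochemical luminescence-based dose-response counterscreen measuring inhibition of HNF4 dimerization, run alongside a screen for blockers of ABHD5–perilipin-5 interaction; split luciferase complementation of HNF4 fusion proteins in cell lysate measuring dimerization.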
T2 sequence (P41235 whole entry): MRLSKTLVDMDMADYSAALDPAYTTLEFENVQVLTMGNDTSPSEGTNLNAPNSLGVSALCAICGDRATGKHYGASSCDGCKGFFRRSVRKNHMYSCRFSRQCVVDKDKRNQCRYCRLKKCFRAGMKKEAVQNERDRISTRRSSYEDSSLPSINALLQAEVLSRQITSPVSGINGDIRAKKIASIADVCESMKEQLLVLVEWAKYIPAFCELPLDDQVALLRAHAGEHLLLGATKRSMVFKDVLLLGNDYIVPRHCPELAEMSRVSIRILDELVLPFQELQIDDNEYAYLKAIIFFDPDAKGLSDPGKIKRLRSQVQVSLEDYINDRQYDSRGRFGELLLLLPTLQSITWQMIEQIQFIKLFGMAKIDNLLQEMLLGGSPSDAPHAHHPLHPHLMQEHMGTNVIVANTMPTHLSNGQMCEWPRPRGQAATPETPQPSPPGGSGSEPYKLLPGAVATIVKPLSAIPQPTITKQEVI
Format: functional, cell-based.

Experiment [9] is described as follows: general cell-killing toxicity readout – plate reader, dry powder samples, cytotoxicity control for PAX8 inhibitor project, dose response (AID 743021). Format: functional, cell-based.
The target in experiment [10] is T3, RNA-binding protein pos-1 (Caenorhabditis elegans, UniProt G5EF15).
T3 sequence (G5EF15 whole entry): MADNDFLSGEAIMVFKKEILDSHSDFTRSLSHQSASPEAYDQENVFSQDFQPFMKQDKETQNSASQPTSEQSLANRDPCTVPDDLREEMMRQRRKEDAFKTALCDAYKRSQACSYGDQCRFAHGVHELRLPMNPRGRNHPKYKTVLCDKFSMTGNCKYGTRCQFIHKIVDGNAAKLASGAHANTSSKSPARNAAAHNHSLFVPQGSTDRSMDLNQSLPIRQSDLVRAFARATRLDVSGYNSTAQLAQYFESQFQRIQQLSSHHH
The experiment can be described thus: disruptors of C. elegans POS-1 RNA interaction – biochemical, fluorescence polarization, dose response (AID 1964).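 Further: purified POS-1 fused to maltose binding protein made in E. coli; potency of compounds blocking POS-1 binding to fluorescent RNA.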

Another experiment deals with Kallikrein-7 (Homo sapiens, UniProt P49862). Nature of the experiment: Fluorescence Intensity-based biochemical primary high throughput dose response assay to identify activators of kallikrein-7 (K7) zymogen.
Chain of Kallikrein-7 (P49862 whole entry): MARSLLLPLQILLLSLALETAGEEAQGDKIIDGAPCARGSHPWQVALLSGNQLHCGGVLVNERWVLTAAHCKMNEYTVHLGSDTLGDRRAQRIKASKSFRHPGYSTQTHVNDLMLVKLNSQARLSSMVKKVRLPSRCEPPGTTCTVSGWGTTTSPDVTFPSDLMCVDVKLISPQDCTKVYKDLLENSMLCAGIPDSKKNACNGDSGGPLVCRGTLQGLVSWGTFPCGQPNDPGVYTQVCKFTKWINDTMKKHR
Experiment [11] can be described thus: optical artefact potency, substrate without enzyme – biochemical, fluorescence intensity, triplicate, artefact control for kallikrein-7 zymogen activator project, dose response (AID 720493).
The target of experiment [12] is T4, Zinc finger protein mex-5 (Caenorhabditis elegans, UniProt Q9XUB2).
T4 sequence (Q9XUB2 whole entry): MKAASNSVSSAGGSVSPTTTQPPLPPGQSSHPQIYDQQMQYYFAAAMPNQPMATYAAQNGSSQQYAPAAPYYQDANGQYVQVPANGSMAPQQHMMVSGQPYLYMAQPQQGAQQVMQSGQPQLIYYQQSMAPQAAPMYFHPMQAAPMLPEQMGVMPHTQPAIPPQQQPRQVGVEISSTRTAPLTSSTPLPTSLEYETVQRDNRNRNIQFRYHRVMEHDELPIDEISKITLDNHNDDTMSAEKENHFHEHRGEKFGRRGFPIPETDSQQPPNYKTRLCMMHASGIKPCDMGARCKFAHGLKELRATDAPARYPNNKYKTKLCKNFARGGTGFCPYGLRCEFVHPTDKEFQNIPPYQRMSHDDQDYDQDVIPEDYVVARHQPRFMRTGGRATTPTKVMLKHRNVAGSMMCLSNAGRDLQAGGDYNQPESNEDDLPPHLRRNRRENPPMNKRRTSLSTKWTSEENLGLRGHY
The experiment can be described thus: potency of MEX-5 RNA-binding blockers – biochemical, C. elegans, fluorescence polarization, dose response (AID 1960).

The nature of experiment [13]: inhibition of bursicon-driven LGR2 cAMP signaling – cell-based, HEK293, CRE-luciferase reporter, cherry pick, dose response (AID 743342). Format: functional.
The nature of experiment [14]: A549 cell cytotoxicity, dose response, cytotoxicity control, plate reader, cherry-pick, antagonist series (AID 743412). Format: functional, cell-based.
A short description of experiment [15]: blockers of bursicon-stimulated LGR2 cAMP reporter – cell-based, HEK293, CRE-luciferase reporter, cherry pick, set 2, dose response (AID 743343).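 Further: transfected cells were stimulated with diluted bursicon conditioned medium after compound addition.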 Format: functional.
A short description of experiment [16]: blockade of melanocortin 4 receptor signaling – cell-based, plate reader, cherry pick, counter-screen for LGR2 antagonist project, dose response (AID 743444).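 Further: transfected HEK 293 cells stimulated with alpha-MSH peptide; potency of inhibitors of the alpha-MSH evoked signal.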 It is filed as functional. (In general: A counterscreen serves to expose hits that act by an unwanted route or on another target.)
Experiment [17] in a line: viability loss in HEK293 cells – cell-based, plate reader, cherry-picked samples, cytotoxicity control, dose response (AID 743446). It is filed as functional.

SMILES strings stand for the structures. Calls of active or inactive are those of the source.

Chain of Paired box protein Pax-8 (Q06710 whole entry, the tested form may be a part): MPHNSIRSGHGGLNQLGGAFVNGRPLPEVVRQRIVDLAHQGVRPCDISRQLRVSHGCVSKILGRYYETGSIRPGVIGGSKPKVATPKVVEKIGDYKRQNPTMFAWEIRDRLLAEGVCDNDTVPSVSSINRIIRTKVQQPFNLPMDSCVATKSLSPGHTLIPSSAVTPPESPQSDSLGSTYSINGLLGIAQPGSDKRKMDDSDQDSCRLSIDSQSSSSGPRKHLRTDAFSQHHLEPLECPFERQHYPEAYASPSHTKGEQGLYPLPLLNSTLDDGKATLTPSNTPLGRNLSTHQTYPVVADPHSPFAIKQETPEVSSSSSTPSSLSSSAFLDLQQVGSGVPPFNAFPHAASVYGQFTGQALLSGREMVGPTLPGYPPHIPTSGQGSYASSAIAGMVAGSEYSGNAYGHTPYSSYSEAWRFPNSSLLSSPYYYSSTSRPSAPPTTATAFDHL

In the case of `CCC(NS(=O)(=O)c1c(C)nc(O)nc1O)C12CC3CC(CC(C3)C1)C2` (stereo unspecified), the AC50 (as a rule, the concentration at which the activity in the assay is half-maximal) in experiment [1] was 7.79 µM (active); in [2] it was 7.48 µM (active); in experiment [3], 7.16 µM (active); in experiment [4], 11.8 µM (active).

Consider `COc1ccc(C(=O)NCCN2CCCC2)cc1OC1CCN(C(C)C)CC1`, for which, in experiment [5], the 50% inhibitory concentration (IC50) (in general, the concentration that inhibits the measured activity by half) is 1.84 µM (active).

With `COc1ccccc1NS(=O)(=O)c1cc(NN=C(C(C)=O)C(=O)Nc2ccc(Cl)cc2)ccc1C`, in experiment [6], the concentration at half-maximal activity (AC50) is 36.6 µM (active).

As for `CN(C)c1cc(NC(=O)c2cccc(C#N)c2)ncn1`, the IC50 on Protein Wnt-3a is > 21.8 µM (inactive).

For `C#CCN(C[C@@H]1[C@@H](OC(=O)NCCCCCC)[C@@H](OC(=O)NCCCCCC)Cn2c(=O)ccc(=O)n21)S(=O)(=O)c1ccc(C)cc1`, the AC50 in experiment [7] is 4.88 µM (active); at Paired box protein Pax-8, 4.18 µM (active); in experiment [9], 38.3 µM (active). In experiment [8], the IC50 was 34.7 µM (inactive).

In the case of `Cc1ccc(/C=C2\Oc3c(ccc(O)c3CN3CCN(C)CC3)C2=O)cc1`, the concentration giving a half-maximal response (EC50) (as a rule, the concentration needed to bring the measured effect to its halfway point) in experiment [10] was 43.7 µM (active); at Kallikrein-7, 12.5 µM (inactive); in [11], > 7.73 µM (active); in experiment [12] it was 153 µM (active).

Regarding `C[C@H](CO)N1C[C@H](C)[C@H](CN(C)C(=O)Nc2cccc3ccccc23)OCCCC[C@H](C)Oc2ccc(NC(=O)C3CCCCC3)cc2C1=O`, the AC50 in experiment [13] is 0.747 µM (active); in experiment [14], 43.9 µM (active).

Take `N#C[C@@H]1[C@H](c2ccc(C#Cc3ccccc3F)cc2)[C@@H](CO)N1C(=O)C1CC1`: the concentration at half-maximal activity (AC50) in experiment [15] was 5.15 µM (active); in experiment [16] it was 5.44 µM (active); in experiment [17] it was 33.5 µM (active); in [14] it was 24.9 µM (active).
